Tests used:
swine = test: 28 day toxicity study, pulmonary artery delivery with magnetic targeting
Protocol: Each animal received a single dose of either control or test article at fixed concentrations by pulmonary artery infusion. […] The vehicle control group received 16 mL of vehicle.
A test article was administered as a single infusion to Groups 1 and 2 and as two infusions in all other groups. A 15 minute magnetic retention period separated the two infusions in Groups 3 and 4. The infusion rate was maintained at a flow rate of 2 mL/min. At the end of the 15 minute magnetic retention period, an angiogram was performed to verify arterial patency in the selected lung lobe. Assessment of toxicity following treatment included laboratory tests in which blood samples were collected for evaluation of serum chemistry, hematology and coagulation parameters prior to dosing (Day 0) and post-dosing on Days 1, 3, 7, 14, 21 and 28.

[1] = system: squamous cell carcinoma of the lung; conditions: 10 mg MMC intra-arterially, after 28 to 48 days, 9 patients; cited from earlier work
[2] = Toxicokinetic analysis of plasma MMC after pulmonary artery infusion
bronchogenic carcinoma = conditions: 39 patients; cited from earlier work
[3] = Mitomycin binding kinetics to magnetically targetable carrier particle; assay type: physicochemical; conditions: for initial mitomycin remaining in the binding supernatant: 5 minutes, 25 mg carrier, 0.755 mg/mL mitomycin
Protocol: Mitomycin binding kinetics was measured at room temperature, and 40° C. […] The mixture was incubated at room temperature and at 40° C. for various time periods up to 60 minutes. The concentration of mitomycin remaining in the binding supernatant was obtained by filtering the sample at a predefined time point and then analyzing by HPLC to determine percentage bound.

[4] = system: squamous cell carcinoma or adenocarcinoma; conditions: full series of 4 treatments, 10 mg MMC each, bronchial artery; cited from earlier work

## CO[C@@]12[C@H](COC(N)=O)C3=C(C(=O)C(C)=C(N)C3=O)N1C[C@@H]1N[C@@H]12 [MMC, Mitomycin C]
swine; 28 days post-dosing, not dose-related
  stomach ulceration: stomach ulceration was seen in some animals
swine; MMC alone group, 4 mg MMC
  clinical signs: transient diarrhea in two animals
swine; MMC control, 4 mg MMC
  embolization (post-treatment angiography): no embolization
[1]
  complete remission of the tumor, patients: 2 patients
  partial remission, patients: 2 patients
[2]; Yorkshire, pig, in vivo, 4 mg
  Cmax: 178 ± 27.1 ng/mL
  Vd: 47.3 ± 13.2 L
  clearance: 618 ± 54 mL/min
[2]; Yorkshire, pig, in vivo, 4 mg, β or λ t1/2, swine, 4 mg MMC
  half-life: 1.12 ± 0.278 h
[2]; Yorkshire, swine, in vivo, distribution half-life, swine, summary over dose groups
  half-life: ~0.133 h
[2]; Yorkshire, swine, in vivo, elimination half-life, swine, summary over dose groups
  half-life: ~1.08 h
[2]; swine, 4 mg MMC, pulmonary artery infusion, plasma MMC
  AUC: 6507 ± 568 (ng/ml) × min
Bronchogenic carcinoma
  neurologic complications: No neurologic complications occurred
  side effects: insignificant
[3]; 40° C
  initial mitomycin remaining in the binding supernatant: 3%
[3]; room temperature
  initial mitomycin remaining in the binding supernatant: 2%
[3]; both room temperature and 40° C
  time to adsorption equilibrium: less than 5 minutes
[3]; room temperature and 40° C, up to 60 minutes
  stability of mitomycin solution during incubation: stable at both temperatures
[4]
  patients with a 20% to 50% decrease of the tumor area: 3 patients
  patients with a 50% decrease of the tumor area: 5 patients
